Laboratory results reported in US10392397B2, “Heterocyclic thiosemicarbazone derivatives and their therapeutical applications” (NANTBIO, INC., priority 2015, dated 2019).

Experiments:
Type in all cases: cell-based
CCRF-CEM = assay: SRB growth inhibition, CCRF-CEM; conditions: Homo sapiens, Leukemia, 48 h
Procedure: (§1) Human tumor cell lines were grown in RPM(1640 medium containing 5% fetal bovine serum and 2 mM L-glutamine. For a typical screening experiment, cells were inoculated into 96 well microtiter plates in 100 μL at plating densities ranging from 5,000 to 40,000 cells/well depending on the doubling time of individual cell lines. After cell inoculation, the microtiter plates were incubated at 37° C., 5% CO2, 95% air and 100% relative humidity for 24 h prior to addition of Compound 3 above.
(§2) After 24 h, two plates of each cell line were fixed in situ with TCA, to represent a measurement of the cell population for each cell line at the time of drug addition (Tz). […]
(§3) Following drug addition, the plates were incubated for an additional 48 h at 37° C., 5% CO2, 95% air, and 100% relative humidity. […] Bound stain was subsequently solubilized with 10 mM trizma base, and the absorbance was read on an automated plate reader at a wavelength of 515 nm. […] Using the seven absorbance measurements [time zero, (Tz), control growth, (C), and test growth in the presence of drug at the five concentration levels (Ti)], the percentage growth was calculated at each of the drug concentrations levels. Percentage growth inhibition was calculated as: [(Ti-Tz)/(C-Tz)]×100 for concentrations for which Ti>/=Tz [(Ti-Tz)/Tz]×100 for concentrations for which Ti<Tz. […]

HL-60(TB) = assay: SRB growth inhibition, HL-60(TB); conditions: Homo sapiens, Leukemia, 48 h
Procedure: as §1, §2, §3

K-562 = assay: SRB growth inhibition, K-562; conditions: Homo sapiens, K562, K-562, Leukemia, 48 h
Procedure: as §1, §2, §3

MOLT-4 = assay: SRB growth inhibition, MOLT-4; conditions: Homo sapiens, MOLT-4, Leukemia, 48 h
Procedure: as §1, §2, §3

RPMI-8226 = assay: SRB growth inhibition, RPMI-8226; conditions: Homo sapiens, RPMI-8226, Leukemia, 48 h
Procedure: as §1, §2, §3

SR = assay: SRB growth inhibition, SR; conditions: Homo sapiens, Leukemia, 48 h
Procedure: as §1, §2, §3

A549/ATCC = assay: SRB growth inhibition, A549/ATCC; conditions: Homo sapiens, Non-Small Cell Lung Cancer, 48 h
Procedure: as §1, §2, §3

EKVX = assay: SRB growth inhibition, EKVX; conditions: Homo sapiens, Non-Small Cell Lung Cancer, 48 h
Procedure: as §1, §2, §3

HOP-62 = assay: SRB growth inhibition, HOP-62; conditions: Homo sapiens, HOP-62, Non-Small Cell Lung Cancer, 48 h
Procedure: as §1, §2, §3

HOP-92 = assay: SRB growth inhibition, HOP-92; conditions: Homo sapiens, HOP-92, Non-Small Cell Lung Cancer, 48 h
Procedure: as §1, §2, §3

NCI-H226 = assay: SRB growth inhibition, NCI-H226; conditions: Homo sapiens, NCI-H226, Non-Small Cell Lung Cancer, 48 h
Procedure: as §1, §2, §3

NCI-H23 = assay: SRB growth inhibition, NCI-H23; conditions: Homo sapiens, NCI-H23, Non-Small Cell Lung Cancer, 48 h
Procedure: as §1, §2, §3

NCI-H322M = assay: SRB growth inhibition, NCI-H322M; conditions: Homo sapiens, Non-Small Cell Lung Cancer, 48 h
Procedure: as §1, §2, §3

NCI-H460 = assay: SRB growth inhibition, NCI-H460; conditions: Homo sapiens, NCI-H460, Non-Small Cell Lung Cancer, 48 h
Procedure: as §1, §2, §3

NCI-H522 = assay: SRB growth inhibition, NCI-H522; conditions: Homo sapiens, NCI-H522, Non-Small Cell Lung Cancer, 48 h
Procedure: as §1, §2, §3

COLO 205 = assay: SRB growth inhibition, COLO 205; conditions: Homo sapiens, COLO 205, Colon Cancer, 48 h
Procedure: as §1, §2, §3

HCC-2998 = assay: SRB growth inhibition, HCC-2998; conditions: Homo sapiens, HCC-2998, Colon Cancer, 48 h
Procedure: as §1, §2, §3

HCT-116 = assay: SRB growth inhibition, HCT-116; conditions: Homo sapiens, HCT-116, Colon Cancer, 48 h
Procedure: as §1, §2, §3

HCT-15 = assay: SRB growth inhibition, HCT-15; conditions: Homo sapiens, HCT-15, Colon Cancer, 48 h
Procedure: as §1, §2, §3

HT29 = assay: SRB growth inhibition, HT29; conditions: Homo sapiens, HT-29, HT29, Colon Cancer, 48 h
Procedure: as §1, §2, §3

KM12 = assay: SRB growth inhibition, KM12; conditions: Homo sapiens, KM12, Colon Cancer, 48 h
Procedure: as §1, §2, §3

SW-620 = assay: SRB growth inhibition, SW-620; conditions: Homo sapiens, SW-620, Colon Cancer, 48 h
Procedure: as §1, §2, §3

SF-268 = assay: SRB growth inhibition, SF-268; conditions: Homo sapiens, SF-268, CNS Cancer, 48 h
Procedure: as §1, §2, §3

SF-295 = assay: SRB growth inhibition, SF-295; conditions: Homo sapiens, SF-295, CNS Cancer, 48 h
Procedure: as §1, §2, §3

SF-539 = assay: SRB growth inhibition, SF-539; conditions: Homo sapiens, SF-539, CNS Cancer, 48 h
Procedure: as §1, §2, §3

SNB-19 = assay: SRB growth inhibition, SNB-19; conditions: Homo sapiens, SNB-19, CNS Cancer, 48 h
Procedure: as §1, §2, §3

SNB-75 = assay: SRB growth inhibition, SNB-75; conditions: Homo sapiens, SNB-75, CNS Cancer, 48 h
Procedure: as §1, §2, §3

U251 = assay: SRB growth inhibition, U251; conditions: Homo sapiens, U-251, U251, CNS Cancer, 48 h
Procedure: as §1, §2, §3

LOX IMVI = assay: SRB growth inhibition, LOX IMVI; conditions: Homo sapiens, Melanoma, 48 h
Procedure: as §1, §2, §3

MALME-3M = assay: SRB growth inhibition, MALME-3M; conditions: Homo sapiens, Melanoma, 48 h
Procedure: as §1, §2, §3

M14 = assay: SRB growth inhibition, M14; conditions: Homo sapiens, M14, Melanoma, 48 h
Procedure: as §1, §2, §3

MDA-MB-435 = assay: SRB growth inhibition, MDA-MB-435; conditions: Homo sapiens, MDA-MB-435, Melanoma, 48 h
Procedure: as §1, §2, §3

SK-MEL-2 = assay: SRB growth inhibition, SK-MEL-2; conditions: Homo sapiens, SK-MEL-2, Melanoma, 48 h
Procedure: as §1, §2, §3

SK-MEL-28 = assay: SRB growth inhibition, SK-MEL-28; conditions: Homo sapiens, SK-MEL-28, Melanoma, 48 h
Procedure: as §1, §2, §3

SK-MEL-5 = assay: SRB growth inhibition, SK-MEL-5; conditions: Homo sapiens, SK-MEL-5, Melanoma, 48 h
Procedure: as §1, §2, §3

UACC-257 = assay: SRB growth inhibition, UACC-257; conditions: Homo sapiens, UACC-257, Melanoma, 48 h
Procedure: as §1, §2, §3

UACC-62 = assay: SRB growth inhibition, UACC-62; conditions: Homo sapiens, UACC-62, Melanoma, 48 h
Procedure: as §1, §2, §3

IGROV1 = assay: SRB growth inhibition, IGROV1; conditions: Homo sapiens, IGROV-1, IGROV1, Ovarian Cancer, 48 h
Procedure: as §1, §2, §3

OVCAR-3 = assay: SRB growth inhibition, OVCAR-3; conditions: Homo sapiens, OVCAR-3, Ovarian Cancer, 48 h
Procedure: as §1, §2, §3

OVCAR-4 = assay: SRB growth inhibition, OVCAR-4; conditions: Homo sapiens, OVCAR-4, Ovarian Cancer, 48 h
Procedure: as §1, §2, §3

OVCAR-5 = assay: SRB growth inhibition, OVCAR-5; conditions: Homo sapiens, OVCAR-5, Ovarian Cancer, 48 h
Procedure: as §1, §2, §3

OVCAR-8 = assay: SRB growth inhibition, OVCAR-8; conditions: Homo sapiens, OVCAR-8, Ovarian Cancer, 48 h
Procedure: as §1, §2, §3

NCI/ADR-RES = assay: SRB growth inhibition, NCI/ADR-RES; conditions: Homo sapiens, Ovarian Cancer, 48 h
Procedure: as §1, §2, §3

SK-OV-3 = assay: SRB growth inhibition, SK-OV-3; conditions: Homo sapiens, SK-OV-3, Ovarian Cancer, 48 h
Procedure: as §1, §2, §3

786-0 = assay: SRB growth inhibition, 786-0; conditions: Homo sapiens, 786-0, Renal Cancer, 48 h
Procedure: as §1, §2, §3

A498 = assay: SRB growth inhibition, A498; conditions: Homo sapiens, A498, Renal Cancer, 48 h
Procedure: as §1, §2, §3

ACHN = assay: SRB growth inhibition, ACHN; conditions: Homo sapiens, Renal Cancer, 48 h
Procedure: as §1, §2, §3

CAKI-1 = assay: SRB growth inhibition, CAKI-1; conditions: Homo sapiens, CAKI-1, Renal Cancer, 48 h
Procedure: as §1, §2, §3

RXF 393 = assay: SRB growth inhibition, RXF 393; conditions: Homo sapiens, RXF 393, Renal Cancer, 48 h
Procedure: as §1, §2, §3

SN12C = assay: SRB growth inhibition, SN12C; conditions: Homo sapiens, Renal Cancer, 48 h
Procedure: as §1, §2, §3

TK-10 = assay: SRB growth inhibition, TK-10; conditions: Homo sapiens, TK-10, Renal Cancer, 48 h
Procedure: as §1, §2, §3

UO-31 = assay: SRB growth inhibition, UO-31; conditions: Homo sapiens, UO-31, Renal Cancer, 48 h
Procedure: as §1, §2, §3

PC-3 = assay: SRB growth inhibition, PC-3; conditions: Homo sapiens, PC-3, Prostate Cancer, 48 h
Procedure: as §1, §2, §3

DU-145 = assay: SRB growth inhibition, DU-145; conditions: Homo sapiens, DU-145, Prostate Cancer, 48 h
Procedure: as §1, §2, §3

MCF7 = assay: SRB growth inhibition, MCF7; conditions: Homo sapiens, MCF7, Breast Cancer, 48 h
Procedure: as §1, §2, §3

MDA-MB-231/ATCC = assay: SRB growth inhibition, MDA-MB-231/ATCC; conditions: Homo sapiens, Breast Cancer, 48 h
Procedure: as §1, §2, §3

HS 578T = assay: SRB growth inhibition, HS 578T; conditions: Homo sapiens, Breast Cancer, 48 h
Procedure: as §1, §2, §3

BT-549 = assay: SRB growth inhibition, BT-549; conditions: Homo sapiens, BT-549, Breast Cancer, 48 h
Procedure: as §1, §2, §3

T-47D = assay: SRB growth inhibition, T-47D; conditions: Homo sapiens, T47D, Breast Cancer, 48 h
Procedure: as §1, §2, §3

MDA-MB-468 = assay: SRB growth inhibition, MDA-MB-468; conditions: Homo sapiens, MDA-MB-468, Breast Cancer, 48 h
Procedure: as §1, §2, §3

Compound: S=C(N/N=C1/CCOc2cccnc21)N1CCN(c2ccccn2)CC1 [Example 3, (Z)—N′-(2H-pyrano[3,2-b]pyridin-4(3H)-ylidene)-4-(pyridin-2-yl)piperazine-1-carbothiohydrazide]
- GI50 (CCRF-CEM): < 10 nM
- GI50 (HL-60(TB)): 14.9 nM
- GI50 (K-562): < 10 nM
- GI50 (MOLT-4): < 10 nM
- GI50 (RPMI-8226): < 10 nM
- GI50 (SR): 65.5 nM
- GI50 (A549/ATCC): 155 nM
- GI50 (EKVX): 140 nM
- GI50 (HOP-62): 37.2 nM
- GI50 (HOP-92): 16.7 nM
- GI50 (NCI-H226): 338 nM
- GI50 (NCI-H23): 32.1 nM
- GI50 (NCI-H322M): 221 nM
- GI50 (NCI-H460): 38.8 nM
- GI50 (NCI-H522): 505 nM
- GI50 (COLO 205): < 10 nM
- GI50 (HCC-2998): 701 nM
- GI50 (HCT-116): < 10 nM
- GI50 (HCT-15): < 10 nM
- GI50 (HT29): < 10 nM
- GI50 (KM12): 225 nM
- GI50 (SW-620): < 10 nM
- GI50 (SF-268): 410 nM
- GI50 (SF-295): 232 nM
- GI50 (SF-539): 1160 nM
- GI50 (SNB-19): 433 nM
- GI50 (SNB-75): 1080 nM
- GI50 (U251): 26.5 nM
- GI50 (LOX IMVI): 25.1 nM
- GI50 (MALME-3M): 1290 nM
- GI50 (M14): 37.5 nM
- GI50 (MDA-MB-435): 271 nM
- GI50 (SK-MEL-2): 799 nM
- GI50 (SK-MEL-28): 472 nM
- GI50 (SK-MEL-5): 222 nM
- GI50 (UACC-257): 11.8 nM
- GI50 (UACC-62): 170 nM
- GI50 (IGROV1): < 10 nM
- GI50 (OVCAR-3): < 10 nM
- GI50 (OVCAR-4): 16.5 nM
- GI50 (OVCAR-5): 991 nM
- GI50 (OVCAR-8): 37.4 nM
- GI50 (NCI/ADR-RES): 37.4 nM
- GI50 (SK-OV-3): 82 nM
- GI50 (786-0): 77.1 nM
- GI50 (A498): 192 nM
- GI50 (ACHN): 196 nM
- GI50 (CAKI-1): 151 nM
- GI50 (RXF 393): 1340 nM
- GI50 (SN12C): 1490 nM
- GI50 (TK-10): 748 nM
- GI50 (UO-31): 132 nM
- GI50 (PC-3): < 10 nM
- GI50 (DU-145): 345 nM
- GI50 (MCF7): < 10 nM
- GI50 (MDA-MB-231/ATCC): 74.8 nM
- GI50 (HS 578T): 754 nM
- GI50 (BT-549): 71.8 nM
- GI50 (T-47D): < 10 nM
- GI50 (MDA-MB-468): < 10 nM
